BindingDB's records for doi:10.1016/0014-2999(89)90363-4 (Novo Industri, 1989)
Where “and” joins values, the source holds several entries; their conditions need not be identical. Equal entries are not always repeated. Structures can show the parent of a compound that is named as a salt.

Biological target: 5-hydroxytryptamine receptor 2A (Rattus norvegicus, UniProt P14842)
Sequence (P14842 whole entry): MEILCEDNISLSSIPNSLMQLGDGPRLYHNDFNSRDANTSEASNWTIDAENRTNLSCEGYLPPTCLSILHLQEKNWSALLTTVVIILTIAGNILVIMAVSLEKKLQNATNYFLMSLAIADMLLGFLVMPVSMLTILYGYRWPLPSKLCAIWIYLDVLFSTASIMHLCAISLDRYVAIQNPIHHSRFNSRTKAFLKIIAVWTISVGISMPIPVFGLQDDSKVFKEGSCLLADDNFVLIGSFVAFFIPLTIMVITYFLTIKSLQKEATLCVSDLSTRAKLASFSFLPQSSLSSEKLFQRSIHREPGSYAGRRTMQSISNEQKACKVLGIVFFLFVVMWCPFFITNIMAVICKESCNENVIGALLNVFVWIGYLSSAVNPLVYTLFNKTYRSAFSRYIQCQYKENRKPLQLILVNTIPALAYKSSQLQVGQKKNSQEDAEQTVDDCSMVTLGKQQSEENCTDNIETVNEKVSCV

Work on `Fc1ccc(C(OCCN2CCN(CCCc3ccccc3)CC2)c2ccc(F)cc2)cc1` [Vanoxerine] yielded a Ki of 189 nM.

Biological target: Sodium-dependent serotonin transporter (Rattus norvegicus, UniProt P31652)
Sequence (P31652 whole entry): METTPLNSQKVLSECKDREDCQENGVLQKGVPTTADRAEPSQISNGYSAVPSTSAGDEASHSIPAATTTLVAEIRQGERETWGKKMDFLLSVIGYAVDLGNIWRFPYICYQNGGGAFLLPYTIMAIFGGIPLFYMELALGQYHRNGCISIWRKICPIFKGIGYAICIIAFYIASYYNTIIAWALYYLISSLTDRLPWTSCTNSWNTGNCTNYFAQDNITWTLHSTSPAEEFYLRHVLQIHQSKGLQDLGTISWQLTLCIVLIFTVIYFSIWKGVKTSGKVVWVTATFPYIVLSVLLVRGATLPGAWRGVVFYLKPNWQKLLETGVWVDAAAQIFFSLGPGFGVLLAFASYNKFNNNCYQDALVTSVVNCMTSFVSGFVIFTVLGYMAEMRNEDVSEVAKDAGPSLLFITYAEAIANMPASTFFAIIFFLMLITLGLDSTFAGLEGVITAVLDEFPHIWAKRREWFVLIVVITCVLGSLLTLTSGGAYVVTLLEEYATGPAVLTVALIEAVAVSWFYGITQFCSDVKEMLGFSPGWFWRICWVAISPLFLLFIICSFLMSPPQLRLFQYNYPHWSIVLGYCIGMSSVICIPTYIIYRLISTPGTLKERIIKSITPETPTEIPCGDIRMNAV

`COC(=O)[C@@H](c1ccccc1)[C@@H]1CCCCN1` and `NCC(O)c1ccc(O)c(O)c1` (stereo not drawn) [Noradrenaline,(+)] are the same in Ki: 1000 nM for the first, 1000 nM for the second.

Molecule `NCCc1ccc(O)c(O)c1` has a Ki of 1000 nM.

Biological target: T1, 5-hydroxytryptamine receptor 1A (Rattus norvegicus, UniProt P19327)
T1 sequence (P19327 whole entry): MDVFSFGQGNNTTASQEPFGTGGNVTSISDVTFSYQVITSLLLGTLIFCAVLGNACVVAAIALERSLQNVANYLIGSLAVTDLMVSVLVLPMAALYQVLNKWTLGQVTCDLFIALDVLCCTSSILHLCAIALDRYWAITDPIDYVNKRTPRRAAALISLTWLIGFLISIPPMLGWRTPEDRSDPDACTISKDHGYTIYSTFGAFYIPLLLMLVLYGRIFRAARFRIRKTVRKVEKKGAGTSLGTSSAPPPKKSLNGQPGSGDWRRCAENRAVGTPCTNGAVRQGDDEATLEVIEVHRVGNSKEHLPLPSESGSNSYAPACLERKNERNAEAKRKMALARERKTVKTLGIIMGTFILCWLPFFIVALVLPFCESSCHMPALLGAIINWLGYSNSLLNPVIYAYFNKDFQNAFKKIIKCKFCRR

`CN1Cc2c(N)cccc2[C@H](c2ccccc2)C1` [(+/-)-2-Methyl-4-phenyl-1,2,3,4-tetrahydro-isoquinolin-8-ylamine] and `CN(C)CCCN1c2ccccc2CCc2ccccc21` cannot be ordered by Ki: greater than 10000 nM for the first, greater than 10000 nM for the second.

First: Fc1ccc(C(OCCN2CCN(CCCc3ccccc3)CC2)c2ccc(F)cc2)cc1 [Vanoxerine]
Second: CN(C)CCCC1(c2ccc(F)cc2)OCc2cc(C#N)ccc21 (stereo not drawn) [CITALOPRAM HYDROBROMIDE]
The Ki of the first is lower: 3600 nM for the first, greater than 10000 nM for the second.

Biological target: D(2) dopamine receptor (Rattus norvegicus, UniProt P61169)
Sequence (P61169 whole entry): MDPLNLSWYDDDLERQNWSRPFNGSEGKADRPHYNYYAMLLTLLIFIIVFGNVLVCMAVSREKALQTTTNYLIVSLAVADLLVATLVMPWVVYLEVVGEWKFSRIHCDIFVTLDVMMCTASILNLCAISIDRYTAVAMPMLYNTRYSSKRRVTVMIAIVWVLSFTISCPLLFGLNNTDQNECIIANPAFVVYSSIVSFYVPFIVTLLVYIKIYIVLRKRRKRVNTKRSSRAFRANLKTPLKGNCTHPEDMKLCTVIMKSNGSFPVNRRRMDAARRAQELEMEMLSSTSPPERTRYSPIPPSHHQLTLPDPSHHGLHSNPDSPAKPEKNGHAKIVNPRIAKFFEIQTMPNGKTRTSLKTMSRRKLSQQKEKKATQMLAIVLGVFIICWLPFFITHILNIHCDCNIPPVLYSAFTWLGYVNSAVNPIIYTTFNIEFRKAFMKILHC

First: CN1Cc2c(N)cccc2[C@H](c2ccccc2)C1 [(+/-)-2-Methyl-4-phenyl-1,2,3,4-tetrahydro-isoquinolin-8-ylamine]
Second: CN(C)CCCN1c2ccccc2CCc2ccccc21
The Ki of the first is higher: greater than 10000 nM for the first, 942 nM for the second. The second binds more tightly here.

`CC(NC(C)(C)C)C(=O)c1cccc(Cl)c1` (stereo not drawn) [BUPROPION HYDROCHLORIDE] and `CN(C)CCCC1(c2ccc(F)cc2)OCc2cc(C#N)ccc21` (stereo not drawn) [CITALOPRAM HYDROBROMIDE] cannot be ordered by Ki: greater than 10000 nM for the first, greater than 10000 nM for the second.

For `Fc1ccc(C(OCCN2CCN(CCCc3ccccc3)CC2)c2ccc(F)cc2)cc1` [Vanoxerine], the Ki was 270 nM.

Biological target: Beta-1 adrenergic receptor (Rattus norvegicus, UniProt P18090)
Sequence (P18090 whole entry): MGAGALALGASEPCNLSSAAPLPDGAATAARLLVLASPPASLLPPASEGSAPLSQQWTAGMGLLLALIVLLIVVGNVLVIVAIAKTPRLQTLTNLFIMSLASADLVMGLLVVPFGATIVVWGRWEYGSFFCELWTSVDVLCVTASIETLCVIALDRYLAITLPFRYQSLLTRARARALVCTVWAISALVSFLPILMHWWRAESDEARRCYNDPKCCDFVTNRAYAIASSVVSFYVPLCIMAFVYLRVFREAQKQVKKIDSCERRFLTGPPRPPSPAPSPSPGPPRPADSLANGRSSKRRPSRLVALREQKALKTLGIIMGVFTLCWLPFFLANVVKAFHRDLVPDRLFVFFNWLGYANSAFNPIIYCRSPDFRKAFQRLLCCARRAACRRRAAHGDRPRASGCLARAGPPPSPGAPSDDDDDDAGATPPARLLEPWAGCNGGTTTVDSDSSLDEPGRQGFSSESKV

`CN1Cc2c(N)cccc2[C@H](c2ccccc2)C1` [(+/-)-2-Methyl-4-phenyl-1,2,3,4-tetrahydro-isoquinolin-8-ylamine] and `CN(C)CCCN1c2ccccc2CCc2ccccc21` cannot be ordered by Ki: greater than 10000 nM for the first, greater than 10000 nM for the second.

`CC(NC(C)(C)C)C(=O)c1cccc(Cl)c1` (stereo not drawn) [BUPROPION HYDROCHLORIDE] and `CN(C)CCCC1(c2ccc(F)cc2)OCc2cc(C#N)ccc21` (stereo not drawn) [CITALOPRAM HYDROBROMIDE] cannot be ordered by Ki: greater than 10000 nM for the first, greater than 10000 nM for the second.

`Fc1ccc(C(OCCN2CCN(CCCc3ccccc3)CC2)c2ccc(F)cc2)cc1` [Vanoxerine] was tested, and the Ki was greater than 10000 nM.

Biological target: T2, Alpha-1A adrenergic receptor (Rattus norvegicus, UniProt P43140)
T2 sequence (P43140 whole entry): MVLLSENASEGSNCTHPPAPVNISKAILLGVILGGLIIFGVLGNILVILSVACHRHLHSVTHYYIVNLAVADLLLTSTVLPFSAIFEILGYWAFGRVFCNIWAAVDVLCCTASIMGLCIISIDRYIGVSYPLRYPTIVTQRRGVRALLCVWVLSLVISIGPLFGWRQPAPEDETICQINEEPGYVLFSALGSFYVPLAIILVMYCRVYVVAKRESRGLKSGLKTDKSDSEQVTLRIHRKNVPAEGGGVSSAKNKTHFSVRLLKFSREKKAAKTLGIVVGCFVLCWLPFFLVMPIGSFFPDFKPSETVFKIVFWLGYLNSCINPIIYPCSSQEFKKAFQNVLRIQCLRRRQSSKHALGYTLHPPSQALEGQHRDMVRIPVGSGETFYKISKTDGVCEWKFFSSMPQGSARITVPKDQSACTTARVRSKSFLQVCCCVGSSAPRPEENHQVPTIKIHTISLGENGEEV

First: CN1Cc2c(N)cccc2[C@H](c2ccccc2)C1 [(+/-)-2-Methyl-4-phenyl-1,2,3,4-tetrahydro-isoquinolin-8-ylamine]
Second: Fc1ccc(C(OCCN2CCN(CCCc3ccccc3)CC2)c2ccc(F)cc2)cc1 [Vanoxerine]
The Ki of the first is higher: greater than 10000 nM for the first, 3500 nM for the second.

`CC(NC(C)(C)C)C(=O)c1cccc(Cl)c1` (stereo not drawn) [BUPROPION HYDROCHLORIDE] and `CN(C)CCCC1(c2ccc(F)cc2)OCc2cc(C#N)ccc21` (stereo not drawn) [CITALOPRAM HYDROBROMIDE] cannot be ordered by Ki: greater than 10000 nM for the first, greater than 10000 nM for the second.

Biological target: Gamma-aminobutyric acid receptor subunit alpha-1 (Rattus norvegicus, UniProt P62813)
Sequence (P62813 whole entry): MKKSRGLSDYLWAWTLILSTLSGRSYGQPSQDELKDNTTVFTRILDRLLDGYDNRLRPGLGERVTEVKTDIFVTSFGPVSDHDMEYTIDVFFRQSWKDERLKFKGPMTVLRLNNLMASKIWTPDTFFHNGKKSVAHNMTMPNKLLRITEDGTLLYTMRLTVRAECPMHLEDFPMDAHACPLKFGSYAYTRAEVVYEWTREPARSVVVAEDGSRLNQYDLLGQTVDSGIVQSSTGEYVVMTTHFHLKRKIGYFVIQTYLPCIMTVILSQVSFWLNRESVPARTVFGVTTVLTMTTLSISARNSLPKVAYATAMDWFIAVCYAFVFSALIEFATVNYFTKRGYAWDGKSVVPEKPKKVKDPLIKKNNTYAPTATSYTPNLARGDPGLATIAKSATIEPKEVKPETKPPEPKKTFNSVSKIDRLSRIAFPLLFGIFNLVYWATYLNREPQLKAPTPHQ

`CN1Cc2c(N)cccc2[C@H](c2ccccc2)C1` [(+/-)-2-Methyl-4-phenyl-1,2,3,4-tetrahydro-isoquinolin-8-ylamine] and `CN(C)CCCN1c2ccccc2CCc2ccccc21` cannot be ordered by Ki: greater than 10000 nM for the first, greater than 10000 nM for the second.

For `CN(C)CCCC1(c2ccc(F)cc2)OCc2cc(C#N)ccc21` (stereo not drawn) [CITALOPRAM HYDROBROMIDE], the Ki was greater than 10000 nM.

`Fc1ccc(C(OCCN2CCN(CCCc3ccccc3)CC2)c2ccc(F)cc2)cc1` [Vanoxerine] was tested, and the Ki was > 10000 nM and 8000 nM.

Biological target: T3, Alpha-2C adrenergic receptor (Rattus norvegicus, UniProt P22086)
T3 sequence (P22086 whole entry): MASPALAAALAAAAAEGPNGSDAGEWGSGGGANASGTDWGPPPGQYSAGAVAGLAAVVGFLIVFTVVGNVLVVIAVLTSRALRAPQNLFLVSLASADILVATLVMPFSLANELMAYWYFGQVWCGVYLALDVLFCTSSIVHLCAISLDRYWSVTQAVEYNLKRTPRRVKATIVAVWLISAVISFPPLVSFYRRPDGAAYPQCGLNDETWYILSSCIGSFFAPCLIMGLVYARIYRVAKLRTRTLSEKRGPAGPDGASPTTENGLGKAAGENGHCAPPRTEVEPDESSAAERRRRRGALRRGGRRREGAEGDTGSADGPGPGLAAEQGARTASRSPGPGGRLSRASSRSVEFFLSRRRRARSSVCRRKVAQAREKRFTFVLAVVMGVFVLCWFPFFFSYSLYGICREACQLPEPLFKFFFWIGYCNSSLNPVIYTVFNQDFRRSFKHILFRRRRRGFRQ

First: CN1Cc2c(N)cccc2[C@H](c2ccccc2)C1 [(+/-)-2-Methyl-4-phenyl-1,2,3,4-tetrahydro-isoquinolin-8-ylamine]
Second: CN(C)CCCN1c2ccccc2CCc2ccccc21
The Ki of the first is higher: greater than 10000 nM for the first, 5700 nM for the second. The second binds more tightly here.

`CC(NC(C)(C)C)C(=O)c1cccc(Cl)c1` (stereo not drawn) [BUPROPION HYDROCHLORIDE] and `CN(C)CCCC1(c2ccc(F)cc2)OCc2cc(C#N)ccc21` (stereo not drawn) [CITALOPRAM HYDROBROMIDE] cannot be ordered by Ki: greater than 10000 nM for the first, greater than 10000 nM for the second.

Molecule `Fc1ccc(C(OCCN2CCN(CCCc3ccccc3)CC2)c2ccc(F)cc2)cc1` [Vanoxerine] has a Ki of 7000 nM.

Biological target: T4, Muscarinic acetylcholine receptor M2 (Rattus norvegicus, UniProt P10980)
T4 sequence (P10980 whole entry): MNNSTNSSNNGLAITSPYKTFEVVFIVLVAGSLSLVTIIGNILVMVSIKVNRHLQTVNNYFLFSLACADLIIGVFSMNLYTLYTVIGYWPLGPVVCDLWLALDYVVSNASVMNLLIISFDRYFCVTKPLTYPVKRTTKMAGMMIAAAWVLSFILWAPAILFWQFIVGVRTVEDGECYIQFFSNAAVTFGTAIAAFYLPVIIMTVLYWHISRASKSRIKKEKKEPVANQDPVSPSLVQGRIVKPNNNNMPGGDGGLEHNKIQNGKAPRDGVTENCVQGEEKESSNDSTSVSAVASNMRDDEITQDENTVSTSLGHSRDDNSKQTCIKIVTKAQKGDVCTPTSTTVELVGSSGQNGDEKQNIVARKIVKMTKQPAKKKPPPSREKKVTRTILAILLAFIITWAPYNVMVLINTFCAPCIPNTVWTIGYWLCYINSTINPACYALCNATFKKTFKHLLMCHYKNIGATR

Going from `CN1Cc2c(N)cccc2[C@H](c2ccccc2)C1` [(+/-)-2-Methyl-4-phenyl-1,2,3,4-tetrahydro-isoquinolin-8-ylamine] to `CN(C)CCCN1c2ccccc2CCc2ccccc21`, the Ki falls from greater than 10000 nM to 2300 nM.

`CC(NC(C)(C)C)C(=O)c1cccc(Cl)c1` (stereo not drawn) [BUPROPION HYDROCHLORIDE] and `CN(C)CCCC1(c2ccc(F)cc2)OCc2cc(C#N)ccc21` (stereo not drawn) [CITALOPRAM HYDROBROMIDE] cannot be ordered by Ki: greater than 10000 nM for the first, greater than 10000 nM for the second.

Molecule `Fc1ccc(C(OCCN2CCN(CCCc3ccccc3)CC2)c2ccc(F)cc2)cc1` [Vanoxerine] has a Ki greater than 10000 nM.

Biological target: D(1A) dopamine receptor (Rattus norvegicus, UniProt P18901)
Sequence (P18901 whole entry): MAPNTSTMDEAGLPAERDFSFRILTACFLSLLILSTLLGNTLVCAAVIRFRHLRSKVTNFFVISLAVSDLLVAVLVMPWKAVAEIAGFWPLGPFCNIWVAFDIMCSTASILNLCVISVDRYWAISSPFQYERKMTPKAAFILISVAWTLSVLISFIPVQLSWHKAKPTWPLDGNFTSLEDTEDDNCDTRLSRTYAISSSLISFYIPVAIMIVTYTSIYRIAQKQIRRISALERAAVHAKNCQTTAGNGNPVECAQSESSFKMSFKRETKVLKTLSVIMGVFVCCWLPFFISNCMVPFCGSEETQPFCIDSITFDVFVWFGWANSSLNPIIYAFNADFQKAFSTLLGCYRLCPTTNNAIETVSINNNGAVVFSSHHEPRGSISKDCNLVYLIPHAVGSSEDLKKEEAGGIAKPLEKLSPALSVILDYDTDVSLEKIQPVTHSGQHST

First: CN1Cc2c(N)cccc2[C@H](c2ccccc2)C1 [(+/-)-2-Methyl-4-phenyl-1,2,3,4-tetrahydro-isoquinolin-8-ylamine]
Second: CN(C)CCCN1c2ccccc2CCc2ccccc21
The Ki of the first is higher: greater than 10000 nM for the first, 3000 nM for the second. The second binds more tightly here.

`CC(NC(C)(C)C)C(=O)c1cccc(Cl)c1` (stereo not drawn) [BUPROPION HYDROCHLORIDE] and `CN(C)CCCC1(c2ccc(F)cc2)OCc2cc(C#N)ccc21` (stereo not drawn) [CITALOPRAM HYDROBROMIDE] cannot be ordered by Ki: greater than 10000 nM for the first, greater than 10000 nM for the second.

`Fc1ccc(C(OCCN2CCN(CCCc3ccccc3)CC2)c2ccc(F)cc2)cc1` [Vanoxerine] showed a Ki of 1000 nM.

Biological target: Histamine H1 receptor (Rattus norvegicus, UniProt P31390)
Sequence (P31390 whole entry): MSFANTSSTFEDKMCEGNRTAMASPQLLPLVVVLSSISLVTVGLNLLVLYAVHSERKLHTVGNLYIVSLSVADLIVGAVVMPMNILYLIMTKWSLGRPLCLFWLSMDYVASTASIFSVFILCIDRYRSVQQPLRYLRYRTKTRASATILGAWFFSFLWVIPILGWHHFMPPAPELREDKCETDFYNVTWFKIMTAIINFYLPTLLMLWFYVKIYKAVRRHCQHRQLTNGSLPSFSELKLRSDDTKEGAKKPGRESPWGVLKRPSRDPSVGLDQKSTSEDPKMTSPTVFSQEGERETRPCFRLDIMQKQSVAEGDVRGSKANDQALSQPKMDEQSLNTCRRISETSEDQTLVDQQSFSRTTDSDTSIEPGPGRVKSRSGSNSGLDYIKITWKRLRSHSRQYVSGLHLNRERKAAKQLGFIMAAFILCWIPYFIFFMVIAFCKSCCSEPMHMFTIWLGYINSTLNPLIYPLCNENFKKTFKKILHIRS

First: CN1Cc2c(N)cccc2[C@H](c2ccccc2)C1 [(+/-)-2-Methyl-4-phenyl-1,2,3,4-tetrahydro-isoquinolin-8-ylamine]
Second: CN(C)CCCN1c2ccccc2CCc2ccccc21
The Ki of the first is 18-fold higher: 35 nM for the first, 2 nM for the second. The second binds more tightly here.

For `Fc1ccc(C(OCCN2CCN(CCCc3ccccc3)CC2)c2ccc(F)cc2)cc1` [Vanoxerine], the Ki was 18 nM.

Biological target: Norepinephrine transporter (Rattus norvegicus, UniProt Q9JIA2)

`CN1Cc2c(N)cccc2[C@H](c2ccccc2)C1` [(+/-)-2-Methyl-4-phenyl-1,2,3,4-tetrahydro-isoquinolin-8-ylamine] and `COc1ccc2c(c1)CN(C)CC2c1ccc(Cl)c(Cl)c1` (stereo not drawn) are within 1.5-fold of each other in Ki: 11.2 nM for the first, 15.7 nM for the second.

`NCCc1c[nH]c2ccc(O)cc12` [[3H]-5-HT] and `NCCc1ccc(O)c(O)c1` are the same in Ki: 1000 nM for the first, 1000 nM for the second.

Compared with `COC(=O)[C@@H](c1ccccc1)[C@@H]1CCCCN1`, `CC(NC(C)(C)C)C(=O)c1cccc(Cl)c1` (stereo not drawn) [BUPROPION HYDROCHLORIDE] is 9.1-fold higher in Ki: 103 nM for the first, 940 nM for the second.

First: NCC(O)c1ccc(O)c(O)c1 (stereo not drawn) [Noradrenaline,(+)]
Second: O[C@]1(c2ccc(Cl)cc2)c2ccccc2C2=NCCN21 [Mazanor]
The Ki of the first is 31-fold higher: 250 nM for the first, 8 nM for the second.

With `C[C@H](N)Cc1ccccc1` [beta-aminopropylbenzene] the Ki was 59 nM and 58 nM.
